Data set [1] deals with β-glucuronidase in intestinal perfusate. The data set can be described thus: biological stability in blank intestinal perfusate. To be noted: for effect on hydrolysis of wogonoside in blank intestinal perfusate: wogonoside 20 μM, 0.1 or 4.4 mM saccharolactone, 20 mM gluconolactone.
For data set [2], the system named is perfused rat intestine (duodenum, upper jejunum, terminal ileum and colon). The data set can be described thus: four-site perfused rat intestinal model. The format is in vivo. The conditions noted are these: for effect of co-perfusion on absorption and metabolism of wogonoside: 0.1 mM saccharolactone, 20 mM gluconolactone, or antibiotics (100 units penicillin and 0.1mg streptomycin/mL).

The conditions of data set [3]: cited from earlier work.
In data set [4] the test system is β-glucuronidase in the rat intestine perfusates. The data set can be described thus: hydrolysis of wogonoside in blank rat intestinal perfusate. The format is in vitro ADME. The conditions noted are these: for Vmax of wogonoside hydrolysis / Km: blank perfusate; for Km: read-out: Km of wogonoside hydrolysis.
Data set [5] has as its system β-glucuronidase of microbial enzymatic extract (rat feces). The data set can be described thus: hydrolysis of wogonoside by microbial enzymatic extract from rat feces. The format is in vitro ADME.
The nature of data set [6]: stability in diluted bile solution. It counts as in vitro ADME, rat. The conditions noted are these: 20 μM, 4-fold diluted bile solution, 37°C.
The nature of data set [7]: chemical stability of wogonoside. It counts as physicochemical.
Data set [8] deals with T1, β-glucuronidase derived from intestinal S9 fraction (Rattus norvegicus, UniProt P06760).
T1 sequence (P06760 23-648): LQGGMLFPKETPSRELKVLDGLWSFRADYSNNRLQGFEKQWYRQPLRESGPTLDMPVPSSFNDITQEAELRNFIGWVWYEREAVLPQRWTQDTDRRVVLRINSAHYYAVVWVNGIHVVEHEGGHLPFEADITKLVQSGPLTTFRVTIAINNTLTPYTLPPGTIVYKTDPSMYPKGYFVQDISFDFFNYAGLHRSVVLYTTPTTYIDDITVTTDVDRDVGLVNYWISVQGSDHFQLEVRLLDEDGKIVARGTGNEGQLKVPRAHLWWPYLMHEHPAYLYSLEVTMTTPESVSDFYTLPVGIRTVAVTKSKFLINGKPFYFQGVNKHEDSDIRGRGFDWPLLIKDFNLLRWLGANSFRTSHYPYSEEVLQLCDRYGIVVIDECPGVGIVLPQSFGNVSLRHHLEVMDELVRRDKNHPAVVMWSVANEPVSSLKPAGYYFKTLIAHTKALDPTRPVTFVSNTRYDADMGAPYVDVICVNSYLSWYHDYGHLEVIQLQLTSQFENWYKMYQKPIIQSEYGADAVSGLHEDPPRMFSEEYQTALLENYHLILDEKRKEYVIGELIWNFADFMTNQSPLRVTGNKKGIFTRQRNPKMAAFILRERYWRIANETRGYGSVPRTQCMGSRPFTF
In words: hydrolysis of wogonoside by rat intestine S9 fractions. It counts as in vitro ADME. To be noted: for Km: read-out: Km of wogonoside hydrolysis.

The source of these data is publication PMC3953453 (Molecular pharmaceutics, 2012).

Like-named read-outs stand apart in the source and are kept apart here. Some results are limits rather than exact numbers.

On to `O=C1O[C@H](CO)[C@@H](O)[C@H](O)[C@H]1O` [gluconolactone, reference compound], for which, in data set [1], the “effect on hydrolysis of wogonoside in blank intestinal perfusate” value was “did not inhibit the hydrolysis of wogonoside”. Also, the “effect of co-perfusion on absorption and metabolism of wogonoside” value in data set [2] is listed as “did not affect its absorption”.

Turning to `Oc1ccc(/C=C/c2cc(O)cc(O)c2)cc1` [resveratrol], in data set [3], the bioavailability was less than 5%.

Turning to `O=C(O)[C@@H](O)[C@H]1OC(=O)[C@H](O)[C@H]1O` [saccharolactone], the “effect on hydrolysis of wogonoside in blank intestinal perfusate” value in data set [1] is “inhibit the hydrolysis of wogonoside in all perfusate”. Besides, in data set [2], the “effect of co-perfusion on absorption and metabolism of wogonoside” value was “affected both absorption and metabolism of wogonoside”. In addition, the “effect of co-perfusion on absorption and metabolism of wogonin” value in data set [2] (co-perfused with 0.1 mM saccharolactone) is recorded as “did not affect the absorption or metabolism of wogonin”.

As to `COc1c(O[C@@H]2O[C@H](C(=O)O)[C@@H](O)[C@H](O)[C@H]2O)cc(O)c2c(=O)cc(-c3ccccc3)oc12` [wogonoside, wogonin-7-O-glucuronide], the “stability in blank intestinal perfusate” value in data set [1] (blank perfusate of duodenum, jejunum, ileum, colon, 37°C, up to 8 h) is “unstable”. Moreover, in data set [1] (centrifugation (13,000 rpm, 30 min) and aseptic filtration, 20 μM), the “stability in blank intestinal perfusate after removal of bacteria” value was “did not improve stability of wogonoside”. Besides, the maximal hydrolysis rate in data set [4] (blank jejunal perfusate, pH 4.5, wogonoside 20μM) was 1.559 ± 0.008 nmol/min/mg; in data set [8] (jejunal S9 fraction, pH 4.5, wogonoside 20μM), 5.195 ± 0.103 nmol/min/mg. Also, the “Vmax of wogonoside hydrolysis” value was found to be 0.15 nmol/min/mg in data set [4] (Col 60-90min); 0.15 nmol/min/mg in data set [4] (Duo 60-90min); 0.85 nmol/min/mg in data set [4] (Ile 60-90min); 0.30 nmol/min/mg in data set [4] (Ile 120-150min); 1.84 nmol/min/mg in data set [4] (Jej 0-30min); 0.93 nmol/min/mg in data set [4] (Jej 30-60min). The “Vmax of wogonoside hydrolysis” value is 0.47 nmol/min/mg in data set [4] (Jej 60-90min); 0.37 nmol/min/mg in data set [4] (Jej 90-120min); 0.18 nmol/min/mg in data set [4] (Jej 120-150min); 49.64 nmol/min/mg in data set [5] (Microflora enzymatic extract); 2.06 nmol/min/mg in data set [8] (Duo S9 fraction); 0.26 nmol/min/mg in data set [8] (Ile S9 fraction). Further, the “Vmax of wogonoside hydrolysis” value in data set [8] (Jeu S9 fraction) was found to be 1.68 nmol/min/mg. The Michaelis-Menten constant (Km) in data set [4] (Col 60-90min) worked out at 19.7 µM; in data set [4] (Duo 60-90min), 19.9 µM; in data set [4] (Ile 60-90min) it was 6.33 µM; in data set [4] (Ile 120-150min), 6.96 µM; in data set [4] (Jej 0-30min), 19.8 µM; in data set [4] (Jej 30-60min), 15.8 µM. Further, the Km is 18.7 µM in data set [4] (Jej 60-90min); 17 µM in data set [4] (Jej 90-120min); 25.5 µM in data set [4] (Jej 120-150min); 7.7 µM in data set [5] (read-out: Km of wogonoside hydrolysis, Microflora enzymatic extract); 30 µM in data set [8] (Duo S9 fraction); 25.7 µM in data set [8] (Ile S9 fraction). Further, in data set [8] (Jeu S9 fraction), the Km stood at 28.2 µM. Further, the highest hydrolysis rate in data set [5] (fecal extract, pH 5.5, wogonoside 20μM) stood at 249.211 ± 0.178 nmol/min/mg. The stability in bile entry in data set [6] is “fairly stable”. Moreover, the chemical stability entry in data set [7] (pH 5.5, pH 6.5 and pH 7.4, 37°C) is “chemically stable”. Further, in data set [7] (pH 5.5, pH 6.5 and pH 7.4, 8 h incubation at 37°C), the “recovery (chemical stability)” value was 104%-106%. For the same compound, the “metabolite found in perfusate (interconversion)” value in data set [2] (5 μM and 20 μM perfused) is on record as “significant amounts of wogonin were recovered in the wogonoside perfusate”. In data set [2] (5 μM and 20 μM, four segments), the intestinal absorption result is recorded as “slower in every intestine regions when compared to wogonin”. In data set [8] (jejunal S9 fraction, wogonoside 20μM, 37°C, 30 min), the “optimal pH of glucuronidase activity” value was 4.5.
